According to patent EP0463212A1, “Imidazo[2,1-b]thiazole compound anti-ulcer agent containing the same” (NIKKEN CHEMICALS CO., LTD., priority 1990, dated 1992):

Key:
aspirin-induced ulcer = assay: Antiulcer activity against aspirin-induced ulcer model; type: in vivo, Wistar strain male rats; conditions: 100 mg/kg oral, 30 min before aspirin 200 mg/kg oral; for Ulcer index: stomach excised 7 hours after aspirin, rats fasted 24 hours; for Inhibition rate: versus control group
Experimental: Antiulcer activity against aspirin-induced ulcer model
A suspension of each test compound in 5% gum arabic aqueous solution was orally given to Wistar strain male rats (at the age of 7 to 8 weeks, weighing 180 to 227 g; 7-8 rats in the group administered with the test compound; 14-16 rats in the control group) fasted for 24 hours at a dose of 100 mg of the test compound/5 ml/kg. Thirty minutes after administration, aspirin was further orally administered at a dose of 200 mg/kg. Seven hours after administration of aspirin, stomach was excised under ethereal anesthesia and spotted and linear erosion and a long diameter of ulcer were microscopically measured to determine an ulcer index and an inhibition rate.
(§1) In the control group, 5% gum arabic aqueous solution was orally administered at a dose of 5 ml/kg.

[1] = test system: water-immersion stress ulcer; assay: Antiulcer activity against water-immersion stress ulcer model; type: in vivo, Wistar strain male rats; conditions: 100 mg/kg oral; for Ulcer index: 30 min before water immersion at 22 ± 1°C, stress load for 6 hours; for Inhibition rate: 30 min before water immersion stress for 6 hours, versus control group
Experimental: Antiulcer activity against water-immersion stress ulcer model
A suspension of each test compound in 5% gum arabic aqueous solution was orally given to Wistar strain male rats (at the age of 7 to 8 weeks, weighing 191 to 238 g; 7-8 rats in the group administered with the test compound; 14-16 rats in the control group) fasted for 24 hours at a dose of 100 mg of the test compound/5 ml/kg. Thirty minutes after administration, the animal was immersed up to the xiphisternum in water bath at 22 ± 1°C using a stress cage made by Tokyo University, Faculty of Pharmacology to apply a stress load for 6 hours. After applying the stress load, the rats had the cervical vertebra dislocated to death. Then, the stomach was excised and, spotted and linear erosion and a long diameter of ulcer were microscopically measured to determine an ulcer index and an inhibition rate.
as §1

gastric juice secretion = assay: Gastric juice secretion inhibition activity (pyloric ligature); type: in vivo, Wistar strain male rats; conditions: 100 mg/kg oral; for Gastric juice (pH) / Free HCℓ / Pepsin output / Total acidity: four hours after; for Free HCℓ: Töpfer reagent; for Pepsin output: casein as substrate; for Total acidity: phenolphthalein reagent; for Gastric juice: gastric juice collected four hours after
Experimental: Gastric juice secretion inhibition activity
A suspension of each test compound in 5% gum arabic aqueous solution was orally given to Wistar strain male rats (at the age of 7 to 8 weeks, weighing 192 to 241 g; 7-9 rats in the group administered with the test compound; 15 rats in the control group) fasted for 24 hours at a dose of 100 mg of the test compound/5 ml/kg. Thirty minutes after administration (the compounds of Examples 3 and 4) or 60 minutes after administration (the compounds of Examples 1, 2, 5, 6 and 7), pyloric ligature was made under ethereal anesthesia. Four hours after, the stomach was excised under ethereal anesthesia to collect gastric juice. The collected gastric juice was centrifuged (2500 rpm) at 4°C for 10 minutes. After the supernatant was collected, an amount of the gastric juice and its pH were measured using a pH meter. Furthermore, an amount of free hydrochloric acid and the total acidity were measured with Töpfer reagent and phenolphthalein reagent, respectively. Using a part of the gastric juice, pepsin output in the gastric juice was measured using casein as substrate in a manner similar to the method of Anson et al.
as §1

[2] = test system: SLC-ICR or SLC-ddy strain male mice; assay: Acute toxicity; type: in vivo; conditions: oral, once, observed for 7 days
Experimental: A suspension of each test compound in 5% gum arabic aqueous solution was orally given to SLC-ICR or SLC-ddy strain male mice (at the age of 6 to 7 weeks, weighing 26.6 to 33.6 g; 3-8 mice in one group) forcedly once at a dose of 500 mg and 1,000mg of the test compound/5mℓ/kg. For 7 days after the administration, the mice were observed whether they were dead or alive.

ethanol-induced ulcer = assay: Antiulcer activity against ethanol-induced ulcer model; type: in vivo, Wistar strain male rats; conditions: 100 mg/kg oral; for Ulcer index: 30 min before absolute ethanol 5 ml/kg oral, 1 hour after ethanol; for Inhibition rate: versus control group
Experimental: Antiulcer activity against ethanol-induced ulcer model
A suspension of each test compound in 5% gum arabic aqueous solution was orally given to Wistar strain male rats (at the age of 7 to 8 weeks, weighing 180 to 250 g; 5-9 rats in the group administered with the test compound; 4-9 rats in the control group) fasted for 24 hours at a dose of 100 mg of the test compound/5 ml/kg. Thirty minutes after administration, absolute ethanol was further orally administered at a dose of 5 mℓ/kg. One hour after administration of absolute ethanol, the stomach was excised under ethereal anesthesia and the area of an ulcerated portion (mm²) (using microscope) or the proportion (%) thereof to all area of gastric wall (by computer image analysis) were measured to determine an ulcer index and an inhibition rate.
as §1

[3] = pyloric ligature 60 minutes after administration
[4] = pyloric ligature 30 minutes after administration
[5] = area of ulcerated portion (microscope)
[6] = proportion of ulcerated area to all area of gastric wall (computer image analysis)

Row | SMILES | Ulcer index (aspirin-induced ulcer) | Inhibition rate (aspirin-induced ulcer) | Ulcer index [1] | Inhibition rate [1] | Gastric juice (pH) (gastric juice secretion; [3]) | Free HCℓ (gastric juice secretion; [3]) | Pepsin output (gastric juice secretion; [3]) | Total acidity (gastric juice secretion; [3]) | Gastric juice (gastric juice secretion; [3]) | Mortality rate (No. of death/No. of treated) ([2]; 500 mg/kg) | Mortality rate (No. of death/No. of treated) ([2]; 1000 mg/kg) | Gastric juice (pH) (gastric juice secretion; [4]) | Free HCℓ (gastric juice secretion; [4]) | Pepsin output (gastric juice secretion; [4]) | Total acidity (gastric juice secretion; [4]) | Gastric juice (gastric juice secretion; [4]) | Ulcer index (ethanol-induced ulcer; [5]) | Inhibition rate (ethanol-induced ulcer; from ulcer index in mm^2) | Ulcer index (ethanol-induced ulcer; [6]) | Inhibition rate (ethanol-induced ulcer; from ulcer index in %)
1 | Cc1nc2scc(C)n2c1CO [Ex. 1, 3,6-dimethyl-5-hydroxymethylimidazo[2,1-b]thiazole] | 38.6 ± 7.9 mm | 45.6% | 2.6 ± 0.9 mm | 89.0% | 2.02 ± 0.31 pH | 33.9 ± 14.9 mcEq/100g | 12.0 ± 1.6 mg of tyrosine/100g | 70.6 ± 17.4 mcEq/100g | 1.12 ± 0.18 mℓ/100g | 0/5 | 1/5 |  |  |  |  |  |  |  |  | 
2 | CCCCc1sc2nc(C)c(CO)n2c1C [Ex. 2, 2-butyl-3,6-dimethyl-5-hydroxymethylimidazo[2,1-b]thiazole] | 52.7 ± 7.8 mm | 25.7% | 13.3 ± 3.9 mm | 43.9% | 1.29 ± 0.08 pH | 111.0 ± 36.3 mcEq/100g | 15.9 ± 2.1 mg of tyrosine/100g | 147.2 ± 37.4 mcEq/100g | 1.63 ± 0.28 mℓ/100g | 0/5 | 0/5 |  |  |  |  |  |  |  |  | 
3 | Cc1nc2sccn2c1C(O)c1ccccc1 (stereo not drawn) [Ex. 3, 5-(hydroxy-phenyl)-methyl-6-methyl-imidazo[2,1-b]thiazole] | 31.7 ± 5.9 mm | 44.8% | 3.6 ± 2.0 mm | 83.3% |  |  |  |  |  | 2/6 | 3/3 | 1.66 ± 0.09 pH | 35.1 ± 5.0 mEq/l | 157.7 ± 17.6 units/hr | 66.6 ± 4.7 mEq/l | 6.4 ± 0.7 mL |  |  |  | 
4 | CCCC(O)c1c(C)nc2sccn12 (stereo not drawn) [Ex. 4, 5-(1-hydroxybutyl)-6-methylimidazo[2,1-b]-thiazole] | 41.3 ± 3.8 mm | 38.2% | 7.4 ± 1.5 mm | 68.2% |  |  |  |  |  | 3/8 | 5/5 | 2.54 ± 0.27 pH | 14.3 ± 7.4 mEq/l | 83.1 ± 19.4 units/hr | 68.8 ± 3.6 mEq/l | 3.6 ± 0.8 mL | 9.2 ± 3.1^** mm^2 | 94.2% |  | 
5 | Cc1nc2sccn2c1C(C)O (stereo not drawn) [Ex. 5, 5-(1-hydroxyethyl)-6-methylimidazo[2,1-b]-thiazole] | 29.6 ± 6.8 mm | 58.3% | 19.5 ± 5.8 mm | 17.7% | 1.48 ± 0.11 pH | 68.4 ± 19.6 mcEq/100g | 16.6 ± 2.2 mg of tyrosine/100g | 117.0 ± 20.8 mcEq/100g | 1.41 ± 0.15 mℓ/100g | 2/5 | 3/5 |  |  |  |  |  |  |  |  | 
6 | CCCCc1sc2nc(C)c(C(O)CCC)n2c1C (stereo not drawn) [Ex. 6, 2-butyl-3,6-dimethyl-5-(1-hydroxybutyl)-imidazo[2,1-b]thiazole] | 37.5 ± 7.4 mm | 47.1% | 18.8 ± 4.7 mm | 20.7% | 1.36 ± 0.17 pH | 132.7 ± 33.8 mcEq/100g | 21.6 ± 2.7 mg of tyrosine/100g | 172.6 ± 36.5 mcEq/100g | 2.00 ± 0.27 mℓ/100g | 0/5 | 0/5 |  |  |  |  |  |  |  |  | 
7 | CCCCc1sc2nc(C)c(C(O)c3ccccc3)n2c1C (stereo not drawn) [Ex. 7, 2-butyl-3,6-dimethyl-5-(hydroxy-phenyl)-methylimidazo[2,1-b]-thiazole] | 65.1 ± 8.5 mm | 8.2% | 25.5 ± 5.5 mm |  | 1.13 ± 0.03 pH | 220.6 ± 32.5 mcEq/100g | 27.2 ± 2.3 mg of tyrosine/100g | 260.5 ± 32.9 mcEq/100g | 2.91 ± 0.29 mℓ/100g | 0/5 | 0/5 |  |  |  |  |  |  |  |  | 
8 | Cc1nc2scc(C)n2c1C(O)c1ccccc1 (stereo not drawn) [Ex. 8, 3,6-dimethyl-5-(hydroxy-phenyl)-methylimidazo[2,1-b]-thiazole] |  |  | 2.8 ± 0.5 mm | 82.0% |  |  |  |  |  |  |  |  |  |  |  |  | 15.3 ± 8.5^** mm^2 | 82.2% |  | 
9 | Cc1ccc(C(O)c2c(C)nc3sccn23)cc1 (stereo not drawn) [Ex. 9, 5-{hydroxy-(4-methylphenyl)}methyl-6-methylimidazo[2,1-b]thiazole] |  |  |  |  |  |  |  |  |  |  |  |  |  |  |  |  |  |  | 6.8 ± 1.5 % | 59.8%
10 | COc1ccc(C(O)c2c(C)nc3sccn23)cc1OC (stereo not drawn) [Ex. 10, 5-{hydroxy-(3,4-dimethoxyphenyl)}-methyl-6-methyl-imidazo[2,1-b]thiazole] |  |  |  |  |  |  |  |  |  |  |  |  |  |  |  |  |  |  | 2.7 ± 0.9 % | 84.0%
11 | Cc1nc2sccn2c1C(O)c1ccc(F)cc1 (stereo not drawn) [Ex. 11, 5-{hydroxy-(4-fluorophenyl)}methyl-6-methylimidazo[2,1-b]thiazole] |  |  |  |  |  |  |  |  |  |  |  |  |  |  |  |  |  |  | 1.2 ± 0.5 % | 92.9%
12 | Cc1nc2scc(C)n2c1C(O)c1ccc(F)cc1 (stereo not drawn) [Ex. 12, 3,6-dimethyl-5-{hydroxy-(4-fluorophenyl)}-methylimidazo[2,1-b]-thiazole] |  |  |  |  |  |  |  |  |  |  |  |  |  |  |  |  |  |  | 6.3 ± 1.3 % | 62.7%
